Experimental data published in ChEMBL document CHEMBL1149467, “From genome to drug lead: identification of a small-molecule inhibitor of the SARS virus” (Bioorg Med Chem Lett, 2006).

Key:
SARS-CoV [1] = experiment: Inhibition of human SARS-CoV Toronto-2 at 300 uM in a cell based assay; format: functional; details: Severe acute respiratory syndrome-related coronavirus
SARS-CoV [2] = experiment: Inhibition of human SARS-CoV Toronto-2 in a cell based assay; format: functional, organism-based; details: Severe acute respiratory syndrome-related coronavirus

Row | Structure (SMILES) | inhibition at 300 µM (SARS-CoV [1]) [%] | EC50 (SARS-CoV [2]) [µM]
1 | O=C(O)c1ccc(NC(=O)c2cccc3c2C2=C(CCCC2)C3=O)cc1 | 25 | 
2 | O=C(O)c1ccc(/N=C/c2c(O)ccc3oc4c(c23)CCCC4)cc1 |  | 23
